Experimental data from ChEMBL document CHEMBL1208728, “Design, synthesis, and structure-activity relationships of pyrazole derivatives as potential FabH inhibitors” (Bioorg Med Chem Lett, 2010).
Converted amounts (≈) assume the structure as drawn.

Assays:
Bacillus subtilis = experiment: Antimicrobial activity against Bacillus subtilis ATCC 6633 by MTT assay; assay type: functional
Staphylococcus aureus = experiment: Antimicrobial activity against Staphylococcus aureus ATCC 6538 by MTT assay; assay type: functional
Enterococcus faecalis = experiment: Antimicrobial activity against Streptococcus faecalis ATCC 9790 by MTT assay; assay type: functional
Pseudomonas aeruginosa = experiment: Antimicrobial activity against Pseudomonas aeruginosa ATCC 13525 by MTT assay; assay type: functional
Escherichia coli = experiment: Antimicrobial activity against Escherichia coli ATCC 35218 by MTT assay; assay type: functional
Enterobacter cloacae = experiment: Antimicrobial activity against Enterobacter cloacae ATCC 13047 by MTT assay; assay type: functional
[1] = target: T1, 3-oxoacyl-[acyl-carrier-protein] synthase 3 (Escherichia coli, UniProt C3TDZ2); experiment: Inhibition of Escherichia coli FabH
T1 sequence (C3TDZ2 whole entry): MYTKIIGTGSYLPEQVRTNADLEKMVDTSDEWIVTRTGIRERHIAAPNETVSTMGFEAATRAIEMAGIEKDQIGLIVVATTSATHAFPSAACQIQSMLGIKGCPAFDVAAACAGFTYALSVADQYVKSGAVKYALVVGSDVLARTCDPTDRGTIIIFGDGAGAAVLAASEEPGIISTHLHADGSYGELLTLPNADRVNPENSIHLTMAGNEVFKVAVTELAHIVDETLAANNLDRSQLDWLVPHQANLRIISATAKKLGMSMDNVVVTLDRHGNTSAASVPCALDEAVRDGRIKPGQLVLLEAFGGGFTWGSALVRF

[2] = Toxicity against RBC assessed as hemolysis; assay type: cell-based; conditions: erythrocyte

Compound | MIC (Bacillus subtilis) [µg/mL] | MIC (Staphylococcus aureus) [µg/mL] | MIC (Enterococcus faecalis) [µg/mL] | MIC (Pseudomonas aeruginosa) [µg/mL] | MIC (Escherichia coli) [µg/mL] | MIC (Enterobacter cloacae) [µg/mL] | IC50 [1] [µM] | LC30 [2] [mg/mL]
CC(=O)N1N=C(c2ccc(C)c(C)c2)CC1c1ccccc1Cl (stereo unspecified) | > 50 | 25 (≈ 76.5 µM) | 50 (≈ 153 µM) | 6.25 (≈ 19.1 µM) | 25 (≈ 76.5 µM) | > 50 |  | 
COc1ccc(C2CC(c3ccc(C)c(C)c3)=NN2C(C)=O)cc1 (stereo unspecified) | 12.5 (≈ 38.8 µM) | 3.12 (≈ 9.69 µM) | 12.5 (≈ 38.8 µM) | 3.12 (≈ 9.69 µM) | 25 (≈ 77.5 µM) | 12.5 (≈ 38.8 µM) |  | 
CC(=O)N1N=C(c2ccccc2)CC1c1ccc(Br)cc1 (stereo unspecified) | 25 (≈ 72.8 µM) | > 50 | 12.5 (≈ 36.4 µM) | 25 (≈ 72.8 µM) | 12.5 (≈ 36.4 µM) | 12.5 (≈ 36.4 µM) |  | 
CC(=O)N1N=C(c2ccccc2)CC1c1ccc(C)cc1 (stereo unspecified) | > 50 | > 50 | 6.25 (≈ 22.5 µM) | 12.5 (≈ 44.9 µM) | 25 (≈ 89.8 µM) | 25 (≈ 89.8 µM) |  | 
COc1cc(OC)cc(C2CC(c3ccccc3)=NN2C(C)=O)c1 (stereo unspecified) | 12.5 (≈ 38.5 µM) | 25 (≈ 77.1 µM) | 25 (≈ 77.1 µM) | 25 (≈ 77.1 µM) | 25 (≈ 77.1 µM) | > 50 |  | 
COc1ccc(C2=NN(C(C)=O)C(c3ccc(F)cc3)C2)cc1 (stereo unspecified) | 6.25 (≈ 20 µM) | 6.25 (≈ 20 µM) | 1.56 (≈ 5 µM) | 12.5 (≈ 40 µM) | 0.39 (≈ 1.25 µM) | 12.5 (≈ 40 µM) | 4.2 | > 10
COc1ccc(C2=NN(C(C)=O)C(c3ccc(Cl)cc3)C2)cc1 (stereo unspecified) | 6.25 (≈ 19 µM) | 25 (≈ 76 µM) | 6.25 (≈ 19 µM) | 25 (≈ 76 µM) | 0.78 (≈ 2.37 µM) | 25 (≈ 76 µM) | 7.6 | > 10
COc1ccc(C2=NN(C(C)=O)C(c3ccc(Br)cc3)C2)cc1 (stereo unspecified) | 12.5 (≈ 33.5 µM) | 12.5 (≈ 33.5 µM) | 3.12 (≈ 8.37 µM) | 12.5 (≈ 33.5 µM) | 1.56 (≈ 4.18 µM) | > 50 | 10.4 | > 10
COc1ccc(C2=NN(C(C)=O)C(c3ccc(C)cc3)C2)cc1 (stereo unspecified) | 25 (≈ 81.1 µM) | 6.25 (≈ 20.3 µM) | 25 (≈ 81.1 µM) | 12.5 (≈ 40.5 µM) | 6.25 (≈ 20.3 µM) | 3.12 (≈ 10.1 µM) | 17.3 | > 10
CC(=O)N1N=C(c2ccccc2)CC1c1ccccc1 (stereo unspecified) | 25 (≈ 94.6 µM) | 25 (≈ 94.6 µM) | 12.5 (≈ 47.3 µM) | 12.5 (≈ 47.3 µM) | 25 (≈ 94.6 µM) | 12.5 (≈ 47.3 µM) |  | 
CC(=O)N1N=C(c2ccccc2)CC1c1ccc(Cl)cc1 (stereo unspecified) | > 50 | 12.5 (≈ 41.8 µM) | 12.5 (≈ 41.8 µM) | 12.5 (≈ 41.8 µM) | 25 (≈ 83.7 µM) | 25 (≈ 83.7 µM) |  | 
NC[C@H]1O[C@H](O[C@H]2[C@H](O)[C@@H](O[C@H]3O[C@H](CO)[C@@H](O)[C@H](N)[C@H]3O)[C@H](N)C[C@@H]2N)[C@H](N)[C@@H](O)[C@@H]1O [BEKANAMYCIN] | 0.39 (≈ 0.807 µM) | 3.12 (≈ 6.46 µM) | 3.12 (≈ 6.46 µM) | 3.12 (≈ 6.46 µM) | 1.56 (≈ 3.23 µM) | 1.56 (≈ 3.23 µM) |  | 
CC1(C)S[C@@H]2[C@H](NC(=O)Cc3ccccc3)C(=O)N2[C@H]1C(=O)O [PENICILLIN G] | 1.56 (≈ 4.67 µM) | 6.25 (≈ 18.7 µM) | 1.56 (≈ 4.67 µM) | 6.25 (≈ 18.7 µM) | 3.12 (≈ 9.35 µM) | 3.12 (≈ 9.35 µM) |  | 

Now from value to compound, other results behind:

MIC (Bacillus subtilis) [µg/mL] | MIC (Staphylococcus aureus) [µg/mL] | MIC (Enterococcus faecalis) [µg/mL] | MIC (Pseudomonas aeruginosa) [µg/mL] | MIC (Escherichia coli) [µg/mL] | MIC (Enterobacter cloacae) [µg/mL] | IC50 [1] [µM] | Compound | LC30 [2] [mg/mL]
12.5 (≈ 35.5 µM) | > 50 | 12.5 (≈ 35.5 µM) | 3.12 (≈ 8.87 µM) | > 50 | 25 (≈ 70.9 µM) |  | COc1cc(OC)cc(C2CC(c3ccc(C)c(C)c3)=NN2C(C)=O)c1 (stereo unspecified) | 
12.5 (≈ 40.8 µM) | 3.12 (≈ 10.2 µM) | 12.5 (≈ 40.8 µM) | 3.12 (≈ 10.2 µM) | > 50 | > 50 |  | CC(=O)N1N=C(c2ccc(C)c(C)c2)CC1c1ccc(C)cc1 (stereo unspecified) | 
> 50 | 25 (≈ 85.5 µM) | 25 (≈ 85.5 µM) | 12.5 (≈ 42.8 µM) | > 50 | > 50 |  | CC(=O)N1N=C(c2ccc(C)c(C)c2)CC1c1ccccc1 (stereo unspecified) | 
25 (≈ 88.6 µM) | 25 (≈ 88.6 µM) | 50 (≈ 177 µM) | 12.5 (≈ 44.3 µM) | 25 (≈ 88.6 µM) | 12.5 (≈ 44.3 µM) |  | CC(=O)N1N=C(c2ccccc2)CC1c1ccc(F)cc1 (stereo unspecified) | 
> 50 | 12.5 (≈ 42.5 µM) | 50 (≈ 170 µM) | 12.5 (≈ 42.5 µM) | > 50 | > 50 |  | COc1ccc(C2CC(c3ccccc3)=NN2C(C)=O)cc1 (stereo unspecified) | 
25 (≈ 83.7 µM) | > 50 | 25 (≈ 83.7 µM) | 25 (≈ 83.7 µM) | > 50 | 25 (≈ 83.7 µM) |  | CC(=O)N1N=C(c2ccccc2)CC1c1ccccc1Cl (stereo unspecified) | 
6.25 (≈ 19.3 µM) | 6.25 (≈ 19.3 µM) | 12.5 (≈ 38.5 µM) | > 50 | 3.12 (≈ 9.63 µM) | 12.5 (≈ 38.5 µM) | 19.6 | COc1ccc(C2=NN(C(C)=O)C(c3ccc(OC)cc3)C2)cc1 (stereo unspecified) | > 10
25 (≈ 76 µM) | > 50 | 12.5 (≈ 38 µM) | > 50 | 6.25 (≈ 19 µM) | 6.25 (≈ 19 µM) | 31.4 | COc1ccc(C2=NN(C(C)=O)C(c3ccccc3Cl)C2)cc1 (stereo unspecified) | > 10
6.25 (≈ 21.2 µM) | > 50 | 50 (≈ 170 µM) | 12.5 (≈ 42.5 µM) | 25 (≈ 84.9 µM) | > 50 | 46.7 | COc1ccc(C2=NN(C(C)=O)C(c3ccccc3)C2)cc1 (stereo unspecified) | > 10
